Measured values published in PubChem BioAssay (NCI).
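96-well plates; 48 h exposure; 5 concentrations. Endpoints by linear interpolation between flanking doses. Not reached: highest tested concentration assigned. GI50 marks 50% less growth. TGI: concentration producing complete growth inhibition.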

Columns and labels:
Experiment in all cases: NCI anticancer screen, dose series, 48 h
DU-145 prostate = system: DU-145 prostate
UACC-62 melanoma = system: UACC-62 melanoma
HT29 colon = system: HT29 colon
OVCAR-8 ovarian = system: OVCAR-8 ovarian
SF-539 CNS = system: SF-539 CNS
SR leukemia = system: SR leukemia
NCI-H460 lung = system: NCI-H460 lung
BT-549 breast = system: BT-549 breast
U251 CNS = system: U251 CNS
A498 renal = system: A498 renal
HL-60(TB) leukemia = system: HL-60(TB) leukemia
SNB-75 CNS = system: SNB-75 CNS
ACHN renal = system: ACHN renal
PC-3 prostate = system: PC-3 prostate
IGROV1 ovarian = system: IGROV1 ovarian
SF-268 CNS = system: SF-268 CNS
RPMI-8226 leukemia = system: RPMI-8226 leukemia
MDA-MB-435 = system: MDA-MB-435
HCC-2998 colon = system: HCC-2998 colon
SK-MEL-28 melanoma = system: SK-MEL-28 melanoma
OVCAR-5 ovarian = system: OVCAR-5 ovarian
KM12 colon = system: KM12 colon
SK-MEL-2 melanoma = system: SK-MEL-2 melanoma
HOP-62 NSCLC = system: HOP-62 NSCLC
HCT-15 colon = system: HCT-15 colon
HS 578T breast = system: HS 578T breast
OVCAR-4 ovarian = system: OVCAR-4 ovarian
A549 NSCLC = system: A549 NSCLC
SW-620 colon = system: SW-620 colon
MDA-MB-231 breast = system: MDA-MB-231 breast
CAKI-1 renal = system: CAKI-1 renal
SF-295 CNS = system: SF-295 CNS
UACC-257 melanoma = system: UACC-257 melanoma
UO-31 renal = system: UO-31 renal
786-0 renal = system: 786-0 renal
LOX IMVI melanoma = system: LOX IMVI melanoma
K-562 leukemia = system: K-562 leukemia
NCI-H226 lung = system: NCI-H226 lung
SNB-19 CNS = system: SNB-19 CNS
SN12C renal = system: SN12C renal
COLO 205 colon = system: COLO 205 colon
SK-MEL-5 melanoma = system: SK-MEL-5 melanoma
MCF7 breast = system: MCF7 breast
CCRF-CEM leukemia = system: CCRF-CEM leukemia
T-47D breast = system: T-47D breast
MALME-3M melanoma = system: MALME-3M melanoma
TK-10 renal = system: TK-10 renal
EKVX NSCLC = system: EKVX NSCLC
HOP-92 NSCLC = system: HOP-92 NSCLC
NCI-H522 lung = system: NCI-H522 lung
RXF 393 renal = system: RXF 393 renal
MOLT-4 leukemia = system: MOLT-4 leukemia
NCI/ADR-RES ovarian = system: NCI/ADR-RES ovarian
SK-OV-3 ovarian = system: SK-OV-3 ovarian
HCT-116 colon = system: HCT-116 colon
M14 melanoma = system: M14 melanoma

Structure (SMILES): CN(C)CCN(C)c1ccc2ncc(C#Cc3cncc(C(=O)Nc4ccc(CN5CCN(C)CC5)c(C(F)(F)F)c4)c3)n2n1
- GI50 (DU-145 prostate): 3.54 µM
- TGI (DU-145 prostate): 9.9 µM
- GI50 (UACC-62 melanoma): 8.21 µM
- TGI (UACC-62 melanoma): 15.7 µM
- GI50 (HT29 colon): 0.822 µM
- TGI (HT29 colon): 1.91 µM
- GI50 (OVCAR-8 ovarian): 1.95 µM
- TGI (OVCAR-8 ovarian): 7.06 µM
- GI50 (SF-539 CNS): 0.615 µM
- TGI (SF-539 CNS): 1.32 µM
- GI50 (SR leukemia): 0.614 µM
- TGI (SR leukemia): 1.63 µM
- GI50 (NCI-H460 lung): 0.891 µM
- TGI (NCI-H460 lung): 1.69 µM
- GI50 (BT-549 breast): 3.37 µM
- TGI (BT-549 breast): 9.44 µM
- GI50 (U251 CNS): 0.883 µM
- TGI (U251 CNS): 1.78 µM
- GI50 (A498 renal): 6.05 µM
- TGI (A498 renal): 12.2 µM
- GI50 (HL-60(TB) leukemia): 1.28 µM
- TGI (HL-60(TB) leukemia): 2.39 µM
- GI50 (SNB-75 CNS): 0.879 µM
- TGI (SNB-75 CNS): 6.57 µM
- GI50 (ACHN renal): 2.51 µM
- TGI (ACHN renal): 8.72 µM
- GI50 (PC-3 prostate): 5.07 µM
- TGI (PC-3 prostate): 11.2 µM
- GI50 (IGROV1 ovarian): 1.59 µM
- TGI (IGROV1 ovarian): 5.7 µM
- GI50 (SF-268 CNS): 5.58 µM
- TGI (SF-268 CNS): 13.3 µM
- GI50 (RPMI-8226 leukemia): 0.955 µM
- TGI (RPMI-8226 leukemia): 2.16 µM
- GI50 (MDA-MB-435): 2.17 µM
- TGI (MDA-MB-435): 8.72 µM
- GI50 (HCC-2998 colon): 1 µM
- TGI (HCC-2998 colon): 2.08 µM
- GI50 (SK-MEL-28 melanoma): 7.58 µM
- TGI (SK-MEL-28 melanoma): 14.3 µM
- GI50 (OVCAR-5 ovarian): 6.21 µM
- TGI (OVCAR-5 ovarian): 12.9 µM
- GI50 (KM12 colon): 0.386 µM
- TGI (KM12 colon): 4.66 µM
- GI50 (SK-MEL-2 melanoma): 6.09 µM
- TGI (SK-MEL-2 melanoma): 12.5 µM
- GI50 (HOP-62 NSCLC): 3.98 µM
- TGI (HOP-62 NSCLC): 10.4 µM
- GI50 (HCT-15 colon): 1.14 µM
- TGI (HCT-15 colon): 3.14 µM
- GI50 (HS 578T breast): 1.68 µM
- TGI (HS 578T breast): 9.75 µM
- GI50 (OVCAR-4 ovarian): 0.933 µM
- TGI (OVCAR-4 ovarian): 2.75 µM
- GI50 (A549 NSCLC): 0.947 µM
- TGI (A549 NSCLC): 2.15 µM
- GI50 (SW-620 colon): 0.949 µM
- TGI (SW-620 colon): 2.27 µM
- GI50 (MDA-MB-231 breast): 0.889 µM
- TGI (MDA-MB-231 breast): 2.17 µM
- GI50 (CAKI-1 renal): 4 µM
- TGI (CAKI-1 renal): 10.4 µM
- GI50 (SF-295 CNS): 0.801 µM
- TGI (SF-295 CNS): 1.76 µM
- GI50 (UACC-257 melanoma): 6.04 µM
- TGI (UACC-257 melanoma): 12.3 µM
- GI50 (UO-31 renal): 6.05 µM
- TGI (UO-31 renal): 12.4 µM
- GI50 (786-0 renal): 6.9 µM
- TGI (786-0 renal): 13.5 µM
- GI50 (LOX IMVI melanoma): 0.75 µM
- TGI (LOX IMVI melanoma): 1.42 µM
- GI50 (K-562 leukemia): 0.0227 µM
- TGI (K-562 leukemia): 0.787 µM
- GI50 (NCI-H226 lung): 1.23 µM
- TGI (NCI-H226 lung): 8.28 µM
- GI50 (SNB-19 CNS): 4.75 µM
- TGI (SNB-19 CNS): 10.8 µM
- GI50 (SN12C renal): 2.23 µM
- TGI (SN12C renal): 7.79 µM
- GI50 (COLO 205 colon): 1.21 µM
- TGI (COLO 205 colon): 6.51 µM
- GI50 (SK-MEL-5 melanoma): 5.08 µM
- TGI (SK-MEL-5 melanoma): 10.9 µM
- GI50 (MCF7 breast): 0.564 µM
- TGI (MCF7 breast): 1.47 µM
- GI50 (CCRF-CEM leukemia): 1.08 µM
- TGI (CCRF-CEM leukemia): 2.91 µM
- GI50 (T-47D breast): 7.83 µM
- TGI (T-47D breast): 15.5 µM
- GI50 (MALME-3M melanoma): 2.7 µM
- TGI (MALME-3M melanoma): 9.71 µM
- GI50 (TK-10 renal): 12.1 µM
- TGI (TK-10 renal): 19.5 µM
- GI50 (EKVX NSCLC): 4.81 µM
- TGI (EKVX NSCLC): 11.2 µM
- GI50 (HOP-92 NSCLC): 1.71 µM
- TGI (HOP-92 NSCLC): 8.31 µM
- GI50 (NCI-H522 lung): 5.08 µM
- TGI (NCI-H522 lung): 11.8 µM
- GI50 (RXF 393 renal): 0.876 µM
- TGI (RXF 393 renal): 1.63 µM
- GI50 (MOLT-4 leukemia): 0.863 µM
- TGI (MOLT-4 leukemia): 2.62 µM
- GI50 (NCI/ADR-RES ovarian): 2.13 µM
- TGI (NCI/ADR-RES ovarian): 7.8 µM
- GI50 (SK-OV-3 ovarian): 8.01 µM
- TGI (SK-OV-3 ovarian): 15 µM
- GI50 (HCT-116 colon): 1.57 µM
- TGI (HCT-116 colon): 6.96 µM
- GI50 (M14 melanoma): 0.854 µM
- TGI (M14 melanoma): 1.71 µM
